From the NIST ThermoML archive (doi:10.1021/acs.jced.8b00524)

Experiment: xn = mol fraction of the nth substance listed
Conditions: 100 kPa, Liquid; for viscosity: Concentric cylinders viscometry; for mass density: Vibrating tube method

CCCCCCCCCO [nonan-1-ol] + CCCCOC(C)=O
Conditions | mass density [kg/m3] | viscosity [mPa·s]
293.15 K, x2 = 0 | 827.5 | 11.41
293.15 K, x2 = 0.0812 | 830.4 | 10.09
293.15 K, x2 = 0.1601 | 833.4 | 8.95
293.15 K, x2 = 0.2399 | 836.7 | 7.89
293.15 K, x2 = 0.3499 | 841.6 | 6.6
293.15 K, x2 = 0.4399 | 845.9 | 5.65
293.15 K, x2 = 0.5599 | 852.2 | 4.46
293.15 K, x2 = 0.6501 | 857.3 | 3.65
293.15 K, x2 = 0.7399 | 862.7 | 2.89
293.15 K, x2 = 0.8499 | 870 | 1.97
293.15 K, x2 = 0.9452 | 876.8 | 1.18
298.15 K, x2 = 0 | 824 | 9.43
298.15 K, x2 = 0.0812 | 826.7 | 8.31
298.15 K, x2 = 0.1601 | 829.6 | 7.35
298.15 K, x2 = 0.2399 | 832.8 | 6.49
298.15 K, x2 = 0.3499 | 837.4 | 5.4
298.15 K, x2 = 0.4399 | 841.6 | 4.62
298.15 K, x2 = 0.5599 | 847.7 | 3.64
298.15 K, x2 = 0.6501 | 852.7 | 2.99
298.15 K, x2 = 0.7399 | 858 | 2.37
298.15 K, x2 = 0.8499 | 865.1 | 1.65
298.15 K, x2 = 0.9452 | 871.8 | 1.03
303.15 K, x2 = 0 | 820.5 | 7.86
303.15 K, x2 = 0.0812 | 822.9 | 6.89
303.15 K, x2 = 0.1601 | 825.7 | 6.07
303.15 K, x2 = 0.2399 | 828.7 | 5.33
303.15 K, x2 = 0.3499 | 833.1 | 4.43
303.15 K, x2 = 0.4399 | 837.2 | 3.79
303.15 K, x2 = 0.5599 | 843.1 | 3
303.15 K, x2 = 0.6501 | 847.9 | 2.46
303.15 K, x2 = 0.7399 | 853 | 1.97
303.15 K, x2 = 0.8499 | 860 | 1.4
303.15 K, x2 = 0.9452 | 866.5 | 0.91
308.15 K, x2 = 0 | 817.1 | 6.61
308.15 K, x2 = 0.0812 | 819.4 | 5.78
308.15 K, x2 = 0.1601 | 821.9 | 5.08
308.15 K, x2 = 0.2399 | 824.7 | 4.44
308.15 K, x2 = 0.3499 | 828.9 | 3.68
308.15 K, x2 = 0.4399 | 832.8 | 3.14
308.15 K, x2 = 0.5599 | 838.4 | 2.49
308.15 K, x2 = 0.6501 | 843.1 | 2.07
308.15 K, x2 = 0.7399 | 848.1 | 1.67
308.15 K, x2 = 0.8499 | 854.9 | 1.21
308.15 K, x2 = 0.9452 | 861.4 | 0.81
313.15 K, x2 = 0 | 813.6 | 5.59
313.15 K, x2 = 0.0812 | 815.5 | 4.87
313.15 K, x2 = 0.1601 | 817.7 | 4.26
313.15 K, x2 = 0.2399 | 820.2 | 3.72
313.15 K, x2 = 0.3499 | 824.2 | 3.08
313.15 K, x2 = 0.4399 | 827.8 | 2.63
313.15 K, x2 = 0.5599 | 833.2 | 2.11
313.15 K, x2 = 0.6501 | 837.8 | 1.77
313.15 K, x2 = 0.7399 | 842.8 | 1.45
313.15 K, x2 = 0.8499 | 849.5 | 1.07
313.15 K, x2 = 0.9452 | 856 | 0.74
318.15 K, x2 = 0 | 810.1 | 4.78
318.15 K, x2 = 0.0812 | 811.8 | 4.15
318.15 K, x2 = 0.1601 | 813.8 | 3.62
318.15 K, x2 = 0.2399 | 816.1 | 3.16
318.15 K, x2 = 0.3499 | 819.7 | 2.61
318.15 K, x2 = 0.4399 | 823 | 2.24
318.15 K, x2 = 0.5599 | 828.3 | 1.8
318.15 K, x2 = 0.6501 | 832.7 | 1.5
318.15 K, x2 = 0.7399 | 837.5 | 1.24
318.15 K, x2 = 0.8499 | 844.3 | 0.93
318.15 K, x2 = 0.9452 | 850.8 | 0.67
323.15 K, x2 = 0 | 806.5 | 4.1
323.15 K, x2 = 0.0812 | 807.9 | 3.56
323.15 K, x2 = 0.1601 | 809.7 | 3.11
323.15 K, x2 = 0.2399 | 811.8 | 2.71
323.15 K, x2 = 0.3499 | 815.2 | 2.24
323.15 K, x2 = 0.4399 | 818.4 | 1.91
323.15 K, x2 = 0.5599 | 823.5 | 1.54
323.15 K, x2 = 0.6501 | 827.8 | 1.29
323.15 K, x2 = 0.7399 | 832.6 | 1.08
323.15 K, x2 = 0.8499 | 839.1 | 0.83
323.15 K, x2 = 0.9452 | 845.6 | 0.61
